In the NIST ThermoML archive (doi:10.1021/je1001544):
Numbers after ± are expanded uncertainties.

Columns and labels:
[1] = 298.15 K; 101.33 kPa; Liquid; Vibrating tube method
[2] = refractive index (Na D-line) (dimensionless); details: 298.15 K; 101.33 kPa; Liquid; Standard Abbe refractometry

Structure (SMILES)	mass density [1] [kg/m3]	refractive index [2]
c1ccccc1 [benzene]	873.57 ± 0.1	1.49774 ± 0.00031
CCOS(=O)(=O)[O-].CCn1cc[n+](C)c1 [1-ethyl-3-methylimidazolium ethyl sulfate]	1237.23 ± 0.43	1.4791 ± 0.00037
CCCCCCCCC [nonane]	713.99 ± 0.25	1.40326 ± 0.00037
CCCCCCC [heptane]	679.56 ± 0.18	1.38515 ± 0.00033
CCCCCC [hexane]	655.19 ± 0.25	1.37234 ± 0.00037
CCCCCCCC [octane]	698.6 ± 0.18	1.39519 ± 0.00033
